# How the values were obtained:
# Test in all cases: Cell anti-proliferation experiment (CTG)
# Type in all cases: cell-based
# A431 = details: Homo sapiens, A-431, 72 h, A431 (wild-type EGFR), class symbol
# From the text: (§1) H1975 has an EGFR: T790M/L858R double mutation, PC-9 has an EGFR exon 19 deletion, and HCC827 has an exon 19 deletion mutation. Baf3-19del- T790M -C797S (Baf3-DTC) is a stable Ba/F3 clone expressing exogenous EGFR gene bearing T790M, C797S, and […] triple amino acid mutations, purchased from KYinno. Baf3-L858R-T790M - C797S (Baf3-LTC) is a stable Ba/F3 clone expressing exogenous EGFR gene bearing […], T790M, and C797S triple mutations, purchased from KYinno. A549 is a wild-type EGFR, purchased from Nanjing Kebai Biotechnology. A431 is a wild-type EGFR, purchased from Shanghai Xinyu Biotechnology. CellCounting-Lite2.0, Trypsin EDTA, 37°C CO2 incubator, cell counter, EnVision Serial No. 1050454.
# (§2) • A) Digested logarithmic phase cells with Trypsin EDTA, added culture medium to stop the reaction, and mixing well with a pipette to prepare a cell suspension. • B) Used Vi-cell to determine cell concentration, and prepared a suspension of 15,000-25,000 cells per milliliter according to the experimental purpose and cell characteristics. • C) After prepared the cell suspension, mixed it gently and added 100 µL to each well, so that the cell density to be tested is 1500-2500 per well.
# (§3) • A) Weighed approximately 2 mg the compound and calculated the required volume of DMSO according to the formula: Compound mass (mg) * Compound purity (%) / Compound molecular weight * 1000. • B) Placed the inoculated cell culture plate into an incubator and incubated for about 24 hours. Then added compounds of varying concentrations. • C) Diluted the 10mM compound stock solution to […] with culture medium, and added the […] compound solution to the second column of the deep well plate in sequence, and added […] culture medium containing 0.5% DMSO to the third to eleventh columns. • D) Gradient dilution: Taked 125 µL solution from the second column and added it to the third column, mix well; then taked 125 µL solution from the third column and added it to the fourth column, repeated this operation until the tenth column. • E) Used a multichannel pipette, aspirated 25 µL the compound from the deep-well plate and added it to a 96-well culture plate. Repeated this process three times for each compound on the 96-well plate. This will ultimately create a concentration gradient of up to 10,000 nM at a 1:4 ratio on the 96-well plate.
# (§4) • A) The effects of the compound were observed under an inverted microscope after the 96-well plate was incubated in an incubator for 72 hours. • B) Added 25 µL CTG solution to each well, placed on a shaker for 10 minutes, and read the […] of each well.
# (§5) Calculate the % Cell Viability using the following formula: %Cell Viability = 100% × (Lum_Sample−Lum_LC)/(Lum_HC−Lum_LC) [formula] • Lum_HC: Cell readings from the 0.1% DMSO control group • Lum_Sample: Cell readings with added compound • Lum_LC: Blank culture medium reading
# (§6) The IC50 value was obtained by curve fitting using GraphPad Prism 8 software.
# A549 = details: Homo sapiens, A549, 72 h, A549 (wild-type EGFR), class symbol
# From the text: as §1, §2, §3, §4, §5, §6
# [1] = system: Baf3-19del- T790M -C797S (Baf3-DTC); details: 72 h, class symbol
# From the text: as §1, §2, §3, §4, §5, §6
# [2] = system: Baf3-L858R-T790M - C797S (Baf3-LTC); details: 72 h, class symbol
# From the text: as §1, §2, §3, §4, §5, §6
# H1975 = details: Homo sapiens, NCI-H1975, 72 h, H1975 (EGFR T790M/L858R), class symbol
# From the text: as §1, §2, §3, §4, §5, §6
# HCC827 = details: Homo sapiens, HCC827, 72 h, HCC827 (exon 19 deletion), class symbol
# From the text: as §1, §2, §3, §4, §5, §6
# PC-9 = details: Homo sapiens, PC-9, 72 h, PC-9 (EGFR exon 19 deletion), class symbol
# From the text: as §1, §2, §3, §4, §5, §6
IC50 (A431),IC50 (A549),IC50 [1],IC50 [2],IC50 (H1975),IC50 (HCC827),IC50 (PC-9),Compound
> 1000 nM,100 to 1000 nM,10 to 100 nM,10 to 100 nM,100 to 1000 nM,100 to 1000 nM,100 to 1000 nM,CCc1cc(Nc2ncc(Cl)c(Nc3ccccc3P(C)(C)=O)n2)c(OC)cc1N1CCC2(CCN(C(=O)CN3CCC(c4cc5c(cc4F)c(N4CCC(=O)NC4=O)nn5C)C(F)(F)C3)CC2)C1 (centres unmarked) [TC-111]
> 1000 nM,100 to 1000 nM,10 to 100 nM,10 to 100 nM,100 to 1000 nM,100 to 1000 nM,100 to 1000 nM,CCc1cc(Nc2ncc(Cl)c(Nc3ccccc3P(C)(C)=O)n2)c(OC)nc1N1CCN(C(=O)CN2CCC(c3cc4c(cc3F)c(N3CCC(=O)NC3=O)nn4C)C(F)(F)C2)CC1 (centres unmarked) [TC-115]
100 to 1000 nM,100 to 1000 nM,100 to 1000 nM,10 to 100 nM,100 to 1000 nM,100 to 1000 nM,100 to 1000 nM,COc1nc(N2CCN(C(=O)CN3CCC(c4cc5c(cc4F)c(N4CCC(=O)NC4=O)nn5C)C(F)(F)C3)CC2)ccc1Nc1ncc(Cl)c(Nc2ccccc2P(C)(C)=O)n1 (centres unmarked) [TC-125]
> 1000 nM,> 1000 nM,10 to 100 nM,10 to 100 nM,100 to 1000 nM,100 to 1000 nM,> 1000 nM,CCc1cc(Nc2ncc(Cl)c(Nc3ccccc3P(C)(C)=O)n2)c(OCC(F)(F)F)nc1N1CCN(C(=O)CN2CCC(c3cc4c(cc3F)c(N3CCC(=O)NC3=O)nn4C)C(F)(F)C2)CC1 (centres unmarked) [TC-127]
> 1000 nM,> 1000 nM,< 10 nM,< 10 nM,10 to 100 nM,100 to 1000 nM,> 1000 nM,CCc1cc(Nc2ncc(Cl)c(Nc3ccccc3P(C)(C)=O)n2)c2c(c1N1CCN(C(=O)CN3CCC(c4cc5c(cc4F)c(N4CCC(=O)NC4=O)nn5C)C(F)(F)C3)CC1)CCO2 (centres unmarked) [TC-135]
> 1000 nM,> 1000 nM,< 10 nM,< 10 nM,10 to 100 nM,100 to 1000 nM,100 to 1000 nM,COc1cc(N2CCN(C(=O)CN3CCC(c4cc5c(cc4F)c(N4CCC(=O)NC4=O)nn5C)C(F)(F)C3)CC2)c(Cl)cc1Nc1ncc(Br)c(Nc2ccccc2P(C)(C)=O)n1 (centres unmarked) [TC-138]
> 1000 nM,> 1000 nM,10 to 100 nM,10 to 100 nM,100 to 1000 nM,100 to 1000 nM,> 1000 nM,CCc1cc(Nc2ncc(Br)c(Nc3ccccc3P(C)(C)=O)n2)c(OC)cc1N1CCN(C(=O)CN2CCC(c3cc4c(cc3F)c(N3CCC(=O)NC3=O)nn4-c3ccccc3)C(F)(F)C2)CC1 (centres unmarked) [TC-150]
> 1000 nM,> 1000 nM,10 to 100 nM,10 to 100 nM,100 to 1000 nM,100 to 1000 nM,100 to 1000 nM,COc1cc(N2CCN(C(=O)CN3CCC(c4cc5c(cc4F)c(N4CCC(=O)NC4=O)nn5C)C(F)(F)C3)CC2)ccc1Nc1ncc(Cl)c(Nc2ccccc2P(C)(C)=O)n1 (centres unmarked) [TC-211]
